≈ marks a conversion by molar mass, not a printed value. Bounds are passed on as bounds.

The values that follow come from patent US4209588A, “Process for producing new antitumor anthracycline antibiotics” (Zaidan Hojin Biseibutsu Kagaku Kenkyu Kai, priority 1976, dated 1980).

One series deals with Can. tropicalis IAM 4942. Kind of series: Minimum inhibitory concentration, broth dilution method. To be noted: Candida tropicalis, IAM4942.
In another series the test system is Pr. morganii. The description is as above. The following applies: Morganella morganii.
The next series deals with Mic. flavus. Described as above. The following applies: Micrococcus flavus.
The test system of series [1] is Bac. megaterium NRRL B-938. The description is as above. To be noted: Priestia megaterium, NRRLB938.
Another series relates to Corv. bovis 1810. The series is described as above.
Series [2] in a line: Acute toxicity, single intraperitoneal injection. To be noted: mouse, in vivo, ip; single i.p. injection, dd mice; read-out: LD50, intraperitoneal administration.
The next series concerns L1210 cells. The series can be described thus: Growth inhibition of cultured L1210 cells. To be noted: Mus musculus, L1210, read-out: % Inhibition, Growth (on Day 2).
Series [3] relates to Mycobact. smegmatis ATCC 607. The series can be described thus: Minimum inhibitory concentration, broth dilution method.
For the next series, the system named is Bac. subtilis ATCC 6633. The series is described as above. The following applies: Bacillus subtilis, ATCC6633.
The next series concerns Can. albicans IAM 4905. The description is as above. To be noted: Candida albicans, IAM4905.
In another series the test system is Sar. lutea ATCC 9341. The series is described as above. To be noted: Micrococcus luteus, ATCC9341.
For series [4], the system named is Ps. fluoroescens NIHJB-254. Described as above.
For another series, the system named is Staph. aureus FDA 209P. The description is as above. To be noted: Staphylococcus aureus, FDA209P.
Another series has as its system Bac. cereus ATCC 9634. Described as above. To be noted: Bacillus cereus, ATCC9634.
In a further series the test system is P388 leukemia. Kind of series: Inhibition of growth of P388 leukemia in mice. It is filed as in vivo. To be noted: mouse, in vivo.
A further series concerns Staph. aureus Smith. Kind of series: Minimum inhibitory concentration, broth dilution method. The following applies: Staphylococcus aureus.
The subject of series [5] is solid and ascitic-type mammalian malignant tumors. Kind of series: Inhibitory action against solid and ascitic-type mammalian malignant tumors. The following applies: in vivo. It is filed as in vivo, mammals.

As for `CC[C@@]1(O)C[C@H](O[C@H]2C[C@H](N(C)C)[C@H](O[C@H]3C[C@H](O)[C@H](OC4CCC(=O)C(C)O4)[C@H](C)O3)[C@H](C)O2)c2c(cc3c(c2O)C(=O)c2c(O)cccc2C3=O)[C@H]1C(=O)OC` (stereo partly drawn) [D-cinerulosyl-2-deoxy-L-fucosyl-L-rhodosaminyl-alkavinone], the minimum inhibitory concentration (MIC) with Can. tropicalis IAM 4942 was 100 µg/mL (≈ 123 µM); in the series with Pr. morganii it was more than 100 µg/mL; against Mic. flavus it was 0.2 µg/mL (≈ 0.246 µM); in series [1] it was 6.25 µg/mL (≈ 7.7 µM); with Corv. bovis 1810, 1.56 µg/mL (≈ 1.92 µM); in [3], 3.12 µg/mL (≈ 3.84 µM). Besides, the minimum inhibitory concentration (MIC) against Bac. subtilis ATCC 6633 was found to be 3.12 µg/mL (≈ 3.84 µM); in the series with Can. albicans IAM 4905, 100 µg/mL (≈ 123 µM); in the series on Sar. lutea ATCC 9341, 0.78 µg/mL (≈ 0.961 µM); in series [4], 100 µg/mL (≈ 123 µM); against Staph. aureus FDA 209P it was 6.25 µg/mL (≈ 7.7 µM); in the series with Bac. cereus ATCC 9634, 1.56 µg/mL (≈ 1.92 µM). In the series with Staph. aureus Smith, this compound gave a minimum inhibitory concentration (MIC) of 1.56 µg/mL (≈ 1.92 µM). Besides, the LD50 in series [2] came to 28.5 mg/kg. Besides, in the series on L1210 cells, the inhibition at 0.1 µg/mL turned out to be 80.7%. The “inhibiting the growth of P388 leukemia” value with P388 leukemia is listed as “effective in inhibiting the growth of malignant tumors”. Moreover, in [5], the “inhibitory action against malignant tumors” value was “marked inhibitory action”.
